Results on 2 compounds are retold here after patent US20260209218A1, “3-PHENYLQUINAZOLINONES AS NOVEL ANTI-CANCER THERAPY” (HELMHOLTZ ZENTRUM MÜNCHEN - DEUTSCHES FORSCHUNGSZENTRUM FÜR …, priority 2022, published 2026).

Experiment [1] has as its system ferroptosis-resistant tumor cells. The settings on record: background statement, references 16-18; cited from earlier work.
In experiment [2] the test system is WT hFSP1 or its mutants S187C, L217R and Q319K. Description: Saturation transfer difference (STD) NMR. To be noted: FIG. 9; 5 μM recombinant human FSP1, 100-fold molar excess of compound, 10° C. The format is binding. As to the method:
Saturation transfer difference (STD) experiments were performed at Bruker Avance III HD spectrometer at 600 MHz ^1H frequency using a H/N/C triple resonance cryogenic probe. Spectra were recorded at 10° C. with 5 μM recombinant human FSP1 (mutant) and 100-fold molar excess of icFSP1 in phosphate-buffer saline with additional 150 mM NaCl, 1% (v/v) DMSO-d6 and 10% (v/v) D2O for deuterium-lock. Saturation time was 2.5 sec and on- and off-frequencies were 0.68 and −17 ppm, respectively. NMR spectra were processed using Topspin 4.0.6 (Bruker).

Experiment [3] deals with Gpx4 KO/Fsp1KO double mutant murine melanoma cells (B16F10) reconstituted with human FSP1. Briefly: Syngeneic subcutaneous tumor model. The format is in vivo, C57BL6/J mice. On the procedure: All mice were obtained from Charles River. For the syngeneic subcutaneous tumor experiments, Gpx4^KO/Fsp1^KO 1B16F10 cells stably overexpressing hFSP1-HA (1×10^6 cells in 100 μL PBS) were injected subcutaneously into the right flank of 7-week-old female C57BL6/J mice. After tumors reached a size of approximately 25-50 mm^3, mice were randomized and treated with vehicle or icFSP1 (50 mg/kg, Intonation) by i.p. injections twice per day for 4-5 days. For generating tumor samples for staining, Gpx4^KO/Fsp1^KO 1B16F10 cells stably expressing hFSP1-WT-HA or hFSP1-Q319K-HA (1×10^6 cells in 100 μL PBS) were injected subcutaneously into the right flank of 7-week-old female C57BL6/J mice. After tumors reached a size of approximately 50-150 mm^3, mice were treated with vehicle or icFSP1 (50 mg/kg, Intonation) by i.p. injections twice per day for 3 days.
(§1) icFSP1 was dissolved in 45% PEG E 300 (Sigma, Cat #91462-1 KG) and 55% PBS (Gibco, Cat #14190094). Tumors were measured by caliper every day and tumor volume was calculated by the following formula: Tumor volume=length×width^2×0.52. When tumor sizes were either larger than 1000 mm^3 at measurement or tumors became necrotic, these tumors were considered to be human endpoints. When tumors became human endpoints, the experiment was stopped at that point and no further experiments were conducted.

Experiment [4] concerns H460 GPX4 KO cells (a human lung cancer cell line). Briefly: Xenograft subcutaneous tumor model, H460. The format is in vivo, Athymic Nude mice. To be noted: FIG. 11C; 50 mg/kg i.p. twice per day from day 8. On the procedure:
For the xenograft subcutaneous tumor experiments, GPX4^KO H460 cells (5×10^6 cells in 100 μL PBS) were injected subcutaneously into the right flanks of 6-week-old female athymic nude mice. After tumors reached a size of approximately 100 mm^3, mice were randomized and treated with vehicle or icFSP1 (50 mg/kg, Intonation) by i.p. injections twice per day.
as §1

For experiment [5], the system named is GPX4 KO human melanoma cells (A375). Briefly: Xenograft subcutaneous tumor model, A375. It is filed as in vivo, nude mice. To be noted: FIG. 3B; treatment from day 3 post implantation, 50 mg/kg i.p. On the procedure:
For the xenograft subcutaneous tumor experiments, GPX4^KO A375 cells (5×10^6 cells in 100 μL PBS) were injected subcutaneously into the right flank of 7-week-old female athymic nude mice. After tumors reached a size of approximately 25-100 mm^3, mice were randomized and treated with vehicle or icFSP1 (50 mg/kg, Intonation) by i.p. injections twice per day for the first 4 days and afterward once daily.
as §1

With `Cc1ccc(-c2c(C#N)c(N)n3c(nc4ccccc43)c2C#N)cc1` [iFSP1, 1-amino-3-(4-methylphenyl)-pyrido[1,2-a]benzimidazole-2,4-dicarbonitrile], the sensitisation towards ferroptosis result in experiment [1] is on record as “efficiently sensitizes ferroptosis-resistant tumor cells towards ferroptosis”.
`COc1cc(CC(=O)Nc2ccc(-n3c(C)nc4ccccc4c3=O)cc2)cc(OC)c1OC` [icFSP1]: the “binding by STD spectra” value in experiment [2] is “show binding of icFSP1”. The “tumor growth (tumor volume, tumor weight)” value in experiment [3] (FIG. 3A, treatment from day 6 post implantation, 50 mg/kg i.p. twice per day) is “inhibited tumor growth in both human and mouse tumors significantly”. For the same compound, in experiment [3] (FIG. 10E, 50 mg/kg i.p. twice per day from day 6), the “tumor growth, hFSP1 WT versus FSP1-Q319K expressing cells” value is reported as “inhibits tumor growth of hFSP1 WT but not of FSP1-Q319K expressing cells”. Further, the tumor growth result is “inhibits tumor growth in vivo” in experiment [4]; “inhibited tumor growth in both human and mouse tumors significantly” in experiment [5].
